Tests used:
[1] = biological target: T1, CARD9-TRIM62 protein-protein interaction (Homo sapiens, UniProt Q9H257); test: Luminex bead-based ELISA CARD9-TRIM62 protein-protein interaction assay; assay type: binding
T1 construct: expressed in transfected cells; host or cells: HEK293F (Life Technologies, R790-07), separate transient transfections, cleared lysates
T1 sequence (Q9H257 1-536): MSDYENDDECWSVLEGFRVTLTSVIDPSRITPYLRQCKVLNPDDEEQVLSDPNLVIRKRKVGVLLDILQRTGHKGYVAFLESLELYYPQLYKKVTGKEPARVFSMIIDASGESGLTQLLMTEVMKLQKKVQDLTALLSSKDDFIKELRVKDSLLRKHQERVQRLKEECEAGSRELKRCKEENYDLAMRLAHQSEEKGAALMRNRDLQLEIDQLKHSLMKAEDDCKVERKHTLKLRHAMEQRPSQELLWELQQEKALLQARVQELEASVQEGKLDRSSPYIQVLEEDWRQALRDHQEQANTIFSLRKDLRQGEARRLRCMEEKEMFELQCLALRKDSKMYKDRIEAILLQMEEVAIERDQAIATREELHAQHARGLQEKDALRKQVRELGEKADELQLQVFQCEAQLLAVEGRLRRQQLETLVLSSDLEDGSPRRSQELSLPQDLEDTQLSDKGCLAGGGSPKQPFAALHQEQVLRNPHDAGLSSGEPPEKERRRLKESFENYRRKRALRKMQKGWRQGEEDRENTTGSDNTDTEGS
Procedure: Flag-StrepII-CARD9 and TRIM62 were purified as described (Cao et al). TRIM62ΔRING and B30.2/SPRY were expressed in Sf9 cells in pFastBac as His8 fusion. For Luminex assay, HEK293F cells were transfected with 3XMyc-TRIM62 in pCMV and separately with Flag-CARD9 in pcDNA4/TO. Anti-Myc tag antibody (9E10) was conjugated to the beads and used for TRIM62 affinity capture from cleared lysates. Following the incubation with compounds, Flag-CARD9 lysate was added; after a series of washes and secondary PE-conjugated antibody incubation, readout was performed on MagPlex instruments.
HEK293F (Life Technologies, R790-07) cells were grown in Freestyle media (Cat. #12338) according to manufacturer's instructions. Cells were transiently transfected with 3XMyc-TRIM62 in pCMV and separately with Flag-CARD9 in pcDNA4/TO. Anti-Myc tag antibody (9E10, Sigma) was conjugated to the Luminex beads (10 spectral range beads in 10 separate reactions) using Pierce reagents/Luminex coupling kit. Flag-CARD9 and Myc-TRIM62 transfected cells were separately lysed in the lysis buffer (50 mM Tris pH 7.4, 150 mM NaCl, 0.5% NP40, protease inhibitors (Complete, Roche, 11873580001), phosphatase inhibitors (PhosStop, Roche, 4906845001)) and cleared by centrifugation at 10,000 g. Cleared TRIM62 lysates were added to the beads for Myc-mediated capture, incubated at room temperature for 1 hr, then washed lx and reconstituted in 1% BSA in PBS.
Screening compounds were pre-dispensed into assay-ready plates (twintecc, Eppendorf; 50 nl of 10 mM compound stock in DMSO per well). Cleared CARD9 lysate (20 μl per well) was added to the assay-ready plate and pre-incubated with the screening compounds for 30 min before addition of TRIM62-bound beads (300 beads per well, in 5 μl of 1% BSA in PBS). Plates were mixed on Bioshake IQ at 2400 rpm for 2 min and incubated for 40 min at room temperature. Plates were then washed on Biomek NX^P instrument with magnetic plate holders 1× with 1% BSA in PBS. Each 10 plates with non-identical spectral regions of beads were combined into one deep-well plate, and incubated with Flag-PE antibody conjugate (Abcam, ab72469) at the final dilution 1:400 for 1 hr. After 1× wash with 1% BSA in PBS, the readout was performed on Luminex MagPlex instruments with standard operating protocol. Bead quantity per well was employed as quality control measure, wells with bead count less than 20 were rejected from the analysis.

[2] = Truhit alphaLISA assay for non-specific alphaLISA inhibitors; conditions: percent AlphaLISA signal, 100% = DMSO control
From the text: Data are expressed as mean of percent AlphaLISA signal (100%=mean AlphaLISA signal with DMSO control)+/−s.d. […] The alphaLISA findings were further corroborated by TRIM62-mediated ubiquitinylation assay coupled with Western blot detection (FIG. 2E).

[3] = test system: NF-κB activation in THP-1 cells; test: NF-κB luciferase reporter assay in THP-1 cells reconstituted with Dectin-1; assay type: cell-based; conditions: for WGP Dectin-1-mediated signaling to NF-κB, luciferase activity: WGP 50 μg/mL, 200 μM compound, 4-h time point
Procedure: (§1) THP-1 and HEK293T cells were from ATCC and cultured according to ATCC instructions. Cell cultures were regularly checked for mycoplasma contamination using a mycoplasma PCR test. BMDCs were isolated from femur and tibia of C57B/6 mice by harvesting bone marrows followed by hypotonic red blood cell lysis. Obtained bone marrow cells were cultured in DMEM (10% FBS, 1% penicillin/streptomycin, 1% glutamin) with 25 ng/ml GM-CSF.
CARD9 KO THP-1 cells were generated by a CRIPSR-based approach as previously described (Cao et al.). For the NF-κB luciferase assay, CARD9 KO or WT THP-1 cells lines were transduced with Dectin-1 (NM 022570) and a lentivirus-based NF-κB luciferase reporter, containing NF-κB responsive element upstream of minimal promoter and Luc2P54. CARD9 KO cells overexpressing Dectin-1 and the NF-κB luciferase reporter were rescued with indicated CARD9 constructs. For compound treatment, Compound 9 was pre-incubated with Dectin-1, NF-κB reporter expressing THP-1 cells for 2 hours, followed by stimulation with scleroglucan (50 μg/ml), whole glucan particles (WGP dispersible, Invivogen, 50 μg/ml), or LPS (100 ng/ml). Reporter luciferase activity was measured using Steadylite Plus reagent (PerkinElmer).

[4] = biological target: T2, ubiquitinylation of CARD9 by TRIM62 (Homo sapiens, UniProt Q9H257); test: TRIM62-mediated ubiquitinylation assay with Western blot detection; assay type: biochemical
T2 construct: Full-length Flag-StrepII-CARD9 for AlphaLISA, DSF and NMR assays was expressed as previously described; StrepII (N); made in house; UBE1 and UBE2D2 purchased from LifeSensors, no catalogue numbers
T2 sequence (Q9H257 1-536): T1 sequence (Q9H257 1-536)
Procedure: For western blot detection, ubiquitinylation reactions contained 250 nM Flag-Strep-CARD9, 5 nM TRIM62, 5 μM of HA-tagged ubiquitin (Boston Biochem), 25 nM UBE1 (LifeSensors), 300 nM UBE2D2 (LifeSensors), 50 mM Tris pH=7.5, 5 mM MgCl2, 2.5 mM ATP, 1 mM DTT in a final volume of 20 μl. Reactions were quenched by the addition of the LDS sample buffer with 50 mM DTT. HA antibody F-7 (Santa Cruz) was used for the detection of polyubiquitin chains, and Flag M2 antibody from Sigma was used to detect Flag-StrepII-CARD9 as a loading control.

[5] = biological target: T2, ubiquitinylation of CARD9 by TRIM62; test: AlphaLISA ubiquitinylation assay; assay type: biochemical; conditions: reconstituted E1-E2-E3 TRIM62 complex
Procedure: FlagStrep-CARD9 and TRIM62 were expressed and purified as previously described (Cao et al.). Assay-ready plates containing 80 nl of 10 mM compound in DMSO were used. Ubiquitinylation reactions contained 12.5 nM Flag-Strep-CARD9, 1.25 nM TRIM62, 500 nM ubiquitin, 10 nM UBE1 (LifeSensors), 200 nM UBE2D2 (LifeSensors), 50 mM Tris pH=7.5, 5 mM MgCl2, 2.5 mM ATP, 1 mM DTT, 0.005% Tween-20 in a final volume of 10 μl. To assemble reactions, all reaction components except ubiquitin and Trim62 were combined and dispensed at a 2× concentration in a volume of 5 μl using a Multi-Drop Combi Reagent Dispenser. Reactions were initiated by added ubiquitin and TRIM62 at a 2× concentration in a volume of 5 μL in the same manner. The reactions were incubated at ambient temperature for 90 min then stopped by the addition of 10 μl of 2× quench/detect solution using a 16-ViaFlow dispenser. The 2× quench/detect solution contained 100 mM HEPES pH=7.5, 300 mM NaCl, 0.01% Tween 20, 30 mM ETDA, 40 μg/ml Streptavidin-Donor beads, 10 μg/ml α-Flag-Acceptor beads (both from PerkinElmer) and 100 nM biotin-TUBE1 (LifeSensors). Plates were incubated at RT for an additional 1 h then read on a PerkinElmer Envision.

[6] = test system: phosphorylation of IKK in primary bone marrow-derived dendritic cells; test: Phospho-IKK FACS in bone marrow-derived dendritic cells; assay type: cell-based, C57B/6 mice; conditions: 200 μM compound; stimuli scleroglucan (Dectin-1) or LPS (TLR4 control)
Procedure: as §1
For phospho-IKK FACS analysis, the BMDCs were plated on day 7 in U bottom 96-well plates at 150,000 cells/well in DMEM, 10% FBS, 1% penicillin/streptomycin, glutamine and GM-CSF the day before the assay. Growth media was replaced with reduced serum media (2% FBS), at this time compound 9 was added to the appropriate wells (at 200 μM) and cells were incubated for 2 hours. Cells were stimulated with 50 μg/ml scleroglucan (Invivogen) or 100 ng/ml LPS (Sigma) for the indicated times at 37° C. At the end of the incubation, media was aspirated and cells were fixed in 4% PFA for 10 min at 37° C.; then resuspended in blocking buffer (3% BSA in permeabilization buffer, eBioscience). […] FACS analysis was run on Cytoflex instrument (Beckman Coulter) and analyzed using FlowJo software by sequentially gating on live/single cells/MHCII high cell population.

Row | inhibition of CARD9-TRIM62 protein-protein interaction (Luminex) [1] | Molecule | non-specific alphaLISA inhibition (Truhit) [2] | WGP Dectin-1-mediated signaling to NF-κB, luciferase activity [3] | inhibition of in vitro CARD9 ubiquitinylation (Western blot) [4] | inhibition of polyubiquitinylation of CARD9 by TRIM62 (AlphaLISA) [5] | phosphorylation of IKK (CARD9 signaling) [6] | NF-κB activation, luciferase reporter ([3]; scleroglucan or LPS stimuli, 2 hr and 4 hr) | activation of Dectin-1-mediated signaling, NF-κB-driven luciferase reporter ([3]; 50 μg/mL WGP or scleroglucan)
1 | dose-dependent inhibitors | NC(=O)C1(N2CCCCC2)CCN(c2ncc(NC(=O)c3ccccc3)cc2C(=O)O)CC1 [compound 6] | Nonspecific inhibition was not observed | inhibited | inhibition of in vitro CARD9 ubiquitinylation reaction | inhibit the functional ubiquitinylation of CARD9 by TRIM62 |  |  | 
2 | dose-dependent inhibitors | NC(=O)C1(N2CCCCC2)CCN(c2ncc(NC(=O)c3cccc(Cl)c3)cc2C(=O)O)CC1 [compound 7] | Nonspecific inhibition was not observed |  | inhibition of in vitro CARD9 ubiquitinylation reaction | inhibit the functional ubiquitinylation of CARD9 by TRIM62 |  |  | 
3 | dose-dependent inhibitors | NC(=O)C1(N2CCCCC2)CCN(c2ncc(NC(=O)c3ccc(Cl)cc3)cc2C(=O)O)CC1 [compound 27] | Nonspecific inhibition was not observed |  | inhibition of in vitro CARD9 ubiquitinylation reaction | inhibit the functional ubiquitinylation of CARD9 by TRIM62 |  |  | 

More lines, now with the values behind:

Row | Molecule | inhibition of CARD9-TRIM62 protein-protein interaction (Luminex) [1] | non-specific alphaLISA inhibition (Truhit) [2] | WGP Dectin-1-mediated signaling to NF-κB, luciferase activity [3] | inhibition of in vitro CARD9 ubiquitinylation (Western blot) [4] | inhibition of polyubiquitinylation of CARD9 by TRIM62 (AlphaLISA) [5] | phosphorylation of IKK (CARD9 signaling) [6] | NF-κB activation, luciferase reporter ([3]; scleroglucan or LPS stimuli, 2 hr and 4 hr) | activation of Dectin-1-mediated signaling, NF-κB-driven luciferase reporter ([3]; 50 μg/mL WGP or scleroglucan)
4 | Cc1ccc(C(=O)Nc2cnc(N3CCC(C(N)=O)(N4CCCCC4)CC3)c(C(=O)O)c2)cc1 [compound 9] | dose-dependent inhibitors | Nonspecific inhibition was not observed | inhibited | inhibition of in vitro CARD9 ubiquitinylation reaction | inhibit the functional ubiquitinylation of CARD9 by TRIM62 | attenuates CARD9 signaling in stimulus-dependent manner | attenuates CARD9 signaling in stimulus-dependent manner | 
5 | NC(=O)C1(N2CCCCC2)CCN(c2ccc(NC(=O)c3ccccc3F)cc2C(=O)O)CC1 [compound 11] | potent inhibitor |  |  |  | potent inhibitor |  |  | 
6 | scleroglucan [reference compound] |  |  |  |  |  |  |  | more potent ligand than WGP

Source: patent US11382908B2, “Compositions and methods for treating inflammatory bowel disease” (The Broad Institute, Inc., priority 2017, dated 2022)
